The target in data set [1] is T1, 5-hydroxytryptamine receptor 1A (Homo sapiens, UniProt P08908).
T1 sequence (P08908 whole entry): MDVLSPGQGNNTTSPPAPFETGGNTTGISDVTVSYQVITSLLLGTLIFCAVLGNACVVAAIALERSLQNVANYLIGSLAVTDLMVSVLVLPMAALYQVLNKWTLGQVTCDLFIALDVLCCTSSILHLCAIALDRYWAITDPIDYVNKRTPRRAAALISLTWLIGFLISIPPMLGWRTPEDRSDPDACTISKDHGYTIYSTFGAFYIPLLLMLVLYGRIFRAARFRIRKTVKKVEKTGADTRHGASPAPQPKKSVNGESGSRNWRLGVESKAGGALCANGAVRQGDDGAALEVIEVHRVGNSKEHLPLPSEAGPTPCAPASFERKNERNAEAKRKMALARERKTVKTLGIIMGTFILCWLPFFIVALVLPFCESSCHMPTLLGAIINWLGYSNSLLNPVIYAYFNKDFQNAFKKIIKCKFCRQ
Description: Displacement of [3H]-8-OH-DPAT from human 5-HT1A receptor extracted from HEK293 cell membrane by microbeta plate reader analysis. Format: cell membranes.

Data set [2] deals with 5-hydroxytryptamine receptor 2A (Homo sapiens, UniProt P28223). The data set is described as follows: Displacement of [3H]-ketanserin from human 5-HT2A receptor extracted from CHO-K1 cell membrane by microbeta plate reader analysis. It counts as cell membranes. For orientation: Displacement assays read how much labelled ligand stays bound in the presence of the test substance.

The target of data set [3] is 5-hydroxytryptamine receptor 7 (Homo sapiens, UniProt P34969). The data set is described as follows: Displacement of [3H]-5-CT from human 5-HT7 receptor extracted from HEK293 cell membrane by microbeta plate reader analysis. Format: cell membranes.
The target of a further data set is D(2) dopamine receptor (Homo sapiens, UniProt P14416). Description: Displacement of [3H]-raclopride from human D2L receptor extracted from HEK293 cell membrane by microbeta plate reader analysis. It counts as cell membranes.
Data set [4] can be described thus: Drug metabolism in rat liver microsomes by UPLC-MS analysis. It counts as ADME, Microsome.
In data set [5] the target is 5-hydroxytryptamine receptor 6 (Homo sapiens, UniProt P50406).
Description: Displacement of [3H]-LSD from human 5-HT6 receptor extracted from HEK293 cell membrane by microbeta plate reader analysis
A short description of data set [6]: in vitro. The following applies: rat, microsomes.
The nature of data set [7]: in vitro. The settings on record: rat, microsomes. The source holds these as a separate data set.
Data set [8] deals with hERG (KCNH2) potassium channel (Homo sapiens, UniProt Q12809). The data set is described as follows: Inhibition of hERG potassium channel at 1 uM relative to control. It counts as toxicity. (In general: The hERG channel carries a current that helps repolarise heart muscle cells.)
In the next data set the target is CYP3A4 (Homo sapiens, UniProt P08684). The data set is described as follows: Inhibition of CYP3A4 (unknown origin) at 10 uM relative to control. It counts as ADME.
Data set [9] is described as follows: Cytotoxicity against human SH-SY5Y cells incubated for 3 hrs by MTT assay. It counts as toxicity, cell-based. (Tetrazolium dyes change colour on reduction, which living cells bring about.)
A short description of data set [10]: Cytotoxicity against rat PC12 cells incubated for 3 hrs by MTT assay. It counts as toxicity, cell-based, PC-12.
A short description of data set [11]: Cytotoxicity against mouse C8D1A cells incubated for 3 hrs by MTT assay. Format: toxicity, cell-based, C8-D1A.
The nature of data set [12]: Cytotoxicity against human astrocytes incubated for 3 hrs by MTT assay. Format: toxicity, cell-based, Astrocyte.
A short description of data set [13]: Drug metabolism in rat liver microsomes assessed as hydroxylation mediated metabolite formation by UPLC-MS analysis. It counts as ADME, Microsome.

5-hydroxytryptamine receptor 2A, sequence (P28223 whole entry): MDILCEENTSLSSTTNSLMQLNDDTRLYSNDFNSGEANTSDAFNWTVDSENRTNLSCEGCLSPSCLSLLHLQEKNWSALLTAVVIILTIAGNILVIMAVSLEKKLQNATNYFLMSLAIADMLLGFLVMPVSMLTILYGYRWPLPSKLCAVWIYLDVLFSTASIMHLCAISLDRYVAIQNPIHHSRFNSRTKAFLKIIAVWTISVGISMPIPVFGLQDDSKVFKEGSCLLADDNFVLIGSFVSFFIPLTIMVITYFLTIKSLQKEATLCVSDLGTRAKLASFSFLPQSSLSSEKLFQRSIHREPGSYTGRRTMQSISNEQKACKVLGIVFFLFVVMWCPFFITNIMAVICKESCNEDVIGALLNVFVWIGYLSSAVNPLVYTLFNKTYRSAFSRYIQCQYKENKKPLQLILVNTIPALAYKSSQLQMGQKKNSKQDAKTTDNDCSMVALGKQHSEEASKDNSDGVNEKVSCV
5-hydroxytryptamine receptor 7, sequence (P34969 whole entry): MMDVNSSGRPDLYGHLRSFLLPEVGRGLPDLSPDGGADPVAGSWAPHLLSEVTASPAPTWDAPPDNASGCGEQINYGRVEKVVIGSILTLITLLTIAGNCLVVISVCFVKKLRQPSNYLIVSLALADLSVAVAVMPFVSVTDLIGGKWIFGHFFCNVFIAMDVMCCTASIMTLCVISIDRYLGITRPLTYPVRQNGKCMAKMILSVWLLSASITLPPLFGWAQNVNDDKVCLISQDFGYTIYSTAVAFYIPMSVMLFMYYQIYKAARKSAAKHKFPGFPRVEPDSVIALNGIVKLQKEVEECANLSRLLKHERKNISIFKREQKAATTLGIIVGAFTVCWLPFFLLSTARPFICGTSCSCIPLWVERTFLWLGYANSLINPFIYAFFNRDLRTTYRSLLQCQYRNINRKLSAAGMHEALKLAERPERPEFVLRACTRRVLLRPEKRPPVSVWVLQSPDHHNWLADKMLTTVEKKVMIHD
5-hydroxytryptamine receptor 6, sequence (P50406 whole entry): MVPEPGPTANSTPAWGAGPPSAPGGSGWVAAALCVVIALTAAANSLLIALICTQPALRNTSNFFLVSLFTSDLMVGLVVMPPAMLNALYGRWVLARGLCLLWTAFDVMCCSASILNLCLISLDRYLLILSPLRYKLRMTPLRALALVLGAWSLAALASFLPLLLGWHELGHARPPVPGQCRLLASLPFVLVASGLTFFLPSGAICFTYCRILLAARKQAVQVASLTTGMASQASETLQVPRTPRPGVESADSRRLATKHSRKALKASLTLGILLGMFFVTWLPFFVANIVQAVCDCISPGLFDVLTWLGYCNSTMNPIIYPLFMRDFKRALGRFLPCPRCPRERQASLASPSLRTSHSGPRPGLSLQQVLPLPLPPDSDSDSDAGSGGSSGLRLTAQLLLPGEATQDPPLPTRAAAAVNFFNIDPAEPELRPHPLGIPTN
D(2) dopamine receptor, sequence (P14416 whole entry): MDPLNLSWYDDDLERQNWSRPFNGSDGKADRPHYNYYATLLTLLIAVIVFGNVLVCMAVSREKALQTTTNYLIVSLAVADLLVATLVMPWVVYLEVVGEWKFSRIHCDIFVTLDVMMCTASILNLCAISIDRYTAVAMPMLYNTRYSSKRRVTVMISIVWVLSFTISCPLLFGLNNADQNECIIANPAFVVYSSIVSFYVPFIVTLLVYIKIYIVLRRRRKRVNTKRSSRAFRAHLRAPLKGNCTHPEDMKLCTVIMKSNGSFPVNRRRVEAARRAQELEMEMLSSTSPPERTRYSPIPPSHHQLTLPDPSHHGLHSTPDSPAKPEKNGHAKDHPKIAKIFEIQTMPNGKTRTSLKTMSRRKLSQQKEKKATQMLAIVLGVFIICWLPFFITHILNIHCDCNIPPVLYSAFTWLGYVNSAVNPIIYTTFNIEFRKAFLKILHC
CYP3A4, sequence (P08684 whole entry): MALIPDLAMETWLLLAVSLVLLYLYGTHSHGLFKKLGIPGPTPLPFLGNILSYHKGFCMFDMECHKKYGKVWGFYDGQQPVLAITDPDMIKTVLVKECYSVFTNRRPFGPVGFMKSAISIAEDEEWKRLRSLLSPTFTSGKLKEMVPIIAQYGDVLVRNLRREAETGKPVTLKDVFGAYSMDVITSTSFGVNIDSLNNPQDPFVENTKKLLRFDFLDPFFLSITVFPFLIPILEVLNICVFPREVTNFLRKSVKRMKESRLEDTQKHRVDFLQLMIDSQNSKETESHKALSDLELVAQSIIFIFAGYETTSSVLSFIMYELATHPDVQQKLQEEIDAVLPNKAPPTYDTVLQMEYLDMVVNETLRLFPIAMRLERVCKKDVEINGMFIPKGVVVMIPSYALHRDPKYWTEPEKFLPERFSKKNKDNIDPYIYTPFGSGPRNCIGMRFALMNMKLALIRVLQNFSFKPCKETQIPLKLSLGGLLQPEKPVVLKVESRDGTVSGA
hERG (KCNH2) potassium channel, sequence (Q12809 whole entry): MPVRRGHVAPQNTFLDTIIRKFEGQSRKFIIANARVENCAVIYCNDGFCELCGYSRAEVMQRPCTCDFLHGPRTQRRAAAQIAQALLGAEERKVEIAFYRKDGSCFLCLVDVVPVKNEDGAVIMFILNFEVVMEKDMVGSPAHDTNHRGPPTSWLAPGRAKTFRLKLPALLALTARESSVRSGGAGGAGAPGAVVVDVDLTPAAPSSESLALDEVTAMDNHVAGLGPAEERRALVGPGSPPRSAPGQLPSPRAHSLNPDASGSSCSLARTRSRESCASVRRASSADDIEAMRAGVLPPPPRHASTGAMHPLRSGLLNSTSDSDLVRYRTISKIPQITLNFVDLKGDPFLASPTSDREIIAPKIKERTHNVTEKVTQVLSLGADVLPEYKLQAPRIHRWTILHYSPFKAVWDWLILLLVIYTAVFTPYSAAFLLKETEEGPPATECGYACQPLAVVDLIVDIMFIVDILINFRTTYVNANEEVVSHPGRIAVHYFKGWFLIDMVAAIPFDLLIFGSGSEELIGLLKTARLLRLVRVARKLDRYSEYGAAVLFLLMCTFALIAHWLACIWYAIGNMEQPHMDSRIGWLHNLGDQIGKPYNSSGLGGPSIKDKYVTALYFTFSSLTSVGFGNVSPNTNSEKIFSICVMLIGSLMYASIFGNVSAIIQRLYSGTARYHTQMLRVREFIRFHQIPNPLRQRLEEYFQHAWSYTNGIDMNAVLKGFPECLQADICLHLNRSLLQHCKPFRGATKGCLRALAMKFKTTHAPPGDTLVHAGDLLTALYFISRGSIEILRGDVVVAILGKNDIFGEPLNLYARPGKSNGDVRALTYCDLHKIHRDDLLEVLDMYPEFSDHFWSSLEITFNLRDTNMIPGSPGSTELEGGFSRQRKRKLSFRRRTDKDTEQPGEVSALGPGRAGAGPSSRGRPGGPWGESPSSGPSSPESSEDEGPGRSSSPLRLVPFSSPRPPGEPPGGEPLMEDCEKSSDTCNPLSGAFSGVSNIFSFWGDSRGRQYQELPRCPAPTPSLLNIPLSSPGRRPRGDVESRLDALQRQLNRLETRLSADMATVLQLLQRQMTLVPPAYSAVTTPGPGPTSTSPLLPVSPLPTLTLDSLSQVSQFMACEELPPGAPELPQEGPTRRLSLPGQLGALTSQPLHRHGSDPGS

Broadly, the Ki is the equilibrium dissociation constant of an inhibitor or competing ligand from its target. For the molecule `O=C(NC1CCNCC1)c1ccn(S(=O)(=O)c2cccc(Cl)c2)c1-c1cccc(F)c1`, the Ki in [1] was 68600 nM; in [2] it was 10600 nM; in [3], 84000 nM; on D(2) dopamine receptor, 7690 nM.

In general, half-life refers to the time in which the quantity being followed falls by half. As a reminder, the microsomal CLint is the capacity of the preparation to metabolise the compound, expressed as a volume cleared per time. A high value points to rapid turnover. For `COc1cccc(-c2cccn2S(=O)(=O)c2cccc(N3CCNCC3)c2)c1`, the inhibition constant (Ki) in data set [1] amounted to 916 nM; in [2], 655 nM; in data set [3] it was 11600 nM; on D(2) dopamine receptor it was 5200 nM; in [5], 1 nM. Also, in data set [4], the Drug metabolism result is given as “Metabolite_Notdetected”. In addition, the half-life at 1 h, 10 µM in the data set “in vitro [6]” was determined as 36.7 min. For the same molecule, in the data set “in vitro [7]”, the microsomal CLint at 1 h, 10 µM was determined as 56.7 µL/min/mg.

What is called inhibition is the percentage by which the read-out fell short of the control. The term IC50 denotes the point on the concentration scale where inhibition reaches its midpoint. A lower IC50 goes with greater potency. Consider `O=S(=O)(c1cccc(N2CCNCC2)c1)n1cccc1-c1cccc(F)c1`, for which the Ki stood at 1840 nM in data set [1]; 2510 nM in data set [2]; 11500 nM in [3]; 4330 nM on D(2) dopamine receptor; 1 nM in data set [5]. Moreover, the Drug metabolism result in data set [4] was “Metabolite_Notdetected”. Also, the inhibition at 1 µM in data set [8] was 8%. 10 µM produced 94% inhibition against CYP3A4. For the same molecule, the IC50 at 3 h amounted to 18500 nM in data set [9], 25600 nM in [10], 37400 nM in data set [11] and 39300 nM in data set [12]. Besides, in the data set “in vitro [6]”, the half-life at 1 h, 10 µM amounted to 49.3 min. Besides, in “in vitro [7]”, the microsomal CLint at 1 h, 10 µM was 32.4 µL/min/mg.

As for `O=S(=O)(c1cccc(N2CCNCC2)c1)n1cccc1-c1ccccc1`, the inhibitory constant (Ki) in data set [1] is 755 nM; in [2] it was 412 nM; in data set [3] it was 12300 nM; at D(2) dopamine receptor, 2170 nM; in data set [5], 1 nM. In data set [13], the Drug metabolism result is “Metabolite_Detected”. For the same molecule, in “in vitro [6]”, the half-life at 1 h, 10 µM came to 83.6 min. The molecule further displayed a microsomal CLint at 1 h, 10 µM in “in vitro [7]” of 24.9 µL/min/mg.

Regarding `O=S(=O)(c1ccccc1)n1cccc1-c1cccc(N2CCNCC2)c1`, the Ki in data set [1] worked out at 2470 nM; in data set [2], 15900 nM; in data set [3], 1320 nM; at D(2) dopamine receptor it was 2700 nM; in data set [5], 27 nM. For the same molecule, the Drug metabolism entry in data set [13] is on record as “Metabolite_Detected”. For the same molecule, in “in vitro [6]”, the half-life at 1 h, 10 µM is 15.3 min. Moreover, the microsomal CLint at 1 h, 10 µM in “in vitro [7]” came to 109 µL/min/mg.

`O=S(=O)(c1cccc(NC2CCNCC2)c1)n1cccc1-c1ccccc1`: the Ki in [1] amounted to 40600 nM; in data set [2], 1540 nM; in data set [3], 1990 nM; at D(2) dopamine receptor it was 10800 nM; in [5] it was 4 nM. In addition, the Drug metabolism result in data set [13] was “Metabolite_Detected”. This molecule had a half-life at 1 h, 10 µM in “in vitro [6]” of 101 min. The same molecule had a microsomal CLint at 1 h, 10 µM in the data set “in vitro [7]” of 20.6 µL/min/mg.

The record behind these values is ChEMBL document CHEMBL5584250, “5-HT6 receptor neutral antagonists protect astrocytes: A lesson from 2-phenylpyrrole derivatives” (Eur J Med Chem, 2024).
